Laboratory results published in patent US20160207994A1, “MODULATORS OF IL-12 AND/OR IL-23 FOR THE PREVENTION OR TREATMENT OF ALZHEIMER'S DISEASE” (UNIVERSITAT ZURICH, priority 2011, published 2016).

Assays:
[1] = tested on: IL-6, IL-1β IL-23 and TNF-a; conditions: cited from earlier work
IL-12/p40 = conditions: cited from earlier work
[2] = tested on: isolated postnatal microglial cell cultures; experiment: Cytokine gene expression in microglial cell cultures treated with synthetic Aβ1-42; assay type: cell-based; conditions: 22.5 μg/ml
Method: Treatment of isolated postnatal microglial cell cultures with synthetic Aβ1-42 peptides (22.5 μg/ml) induced an almost 6-fold upregulation of IL-12/IL-23p40 after 24 h when compared to unstimulated controls (FIG. 1c).
Since both in human AD samples as well as in transgenic AD mice, microglia and macrophages surrounding Aβ-plaques are reported to be a major source of inflammatory cytokines, we FACS sorted myeloid brain cells of Alzheimer mice in order to better characterize this inflammatory component. Initially, we assessed the expression of IL-12, IL-23 and TNFα in 4-month-old APPPS1 animals and age matched non-transgenic littermates by quantitative PCR of the two cellular fractions obtained (CD45^+ CD11b^+ and CD45^− CD11b^−). […] In contrast, we observed a robust upregulation of IL-12/IL-23p40 and IL-23p19 in the double positive fraction containing microglia and brain macrophages of APPPS1 mice compared to age-matched littermate controls (FIG. 1b). […] To validate a potential link between IL-12 and IL-23 subunits and Aβ-pathology in APPPS1 transgenic animals—besides their impact in models of CNS autoimmune disease, IL-12/IL-23 have not been described to play a role in neurodegenerative diseases so far—as well as to test, whether inhibition of IL-12 and IL-23 subunits could alter disease progression in AD mice, genetic and applied experiments targeting IL-12 and IL-23 subunits in AD mice were performed.

CC/C=C\C[C@H](O)C(O)/C=C/C=C/C=C\C=C\[C@@H](O)C/C=C\CCC(=O)O (stereo partly drawn) [Resolvin D2, (7S, 17S)-7, 16, 17-trihydroxydocosa-4,8, 10, 12, 14, 19-hexaenoic acid]
levels of proinflammatory cytokines, namely IL-6, IL-1β IL-23 and TNF-a [1]: drastically reduces

CC[C@@H](O)/C=C/C=C\C[C@@H](O)/C=C/C=C/C=C\[C@@H](O)CCCC(=O)O [Resolvin E1, (5S, 12R, 18R)-5, 12, 18-trihydroxyicosa-6,8, 10, 14, 16-pentaenoic acid]
proinflammatory gene expression, i. a. IL-12/p40 (IL-12/p40): dramatically decreases

Aβ1-42 peptides: synthetic Aβ1-42 peptides used to stimulate microglial cell cultures
upregulation of IL-23p19 [2]: substantial upregulation | upregulation of TNFα [2]: substantial upregulation | upregulation of IL-12/IL-23p40 over unstimulated controls ([2]; 24 h): ~6 fold
